Test: xn = mol fraction of the nth substance listed
Conditions: Liquid, Other PVT measurement

CCCCn1cc[n+](C)c1.F[B-](F)(F)F [1-butyl-3-methylimidazolium tetrafluoroborate] + CCO
mass density [kg/m3]
Conditions	x1 = 0.2	x1 = 0.3	x1 = 0.3999	x1 = 0.4998	x1 = 0.6	x1 = 0.6996	x1 = 0.8001	x1 = 0.8998	x1 = 1
313.15 K, 200 kPa	965	1022	1071	1098	1121	1142	1158	1173	1185
313.15 K, 600 kPa	966	1023	1072	1098	1122	1142	1158	1174	1186
313.15 K, 1000 kPa	966	1023	1072	1098	1122	1143	1159	1174	1186
313.15 K, 1400 kPa	966	1024	1072	1099	1123	1144	1159	1174	1186
313.15 K, 1800 kPa	967	1024	1073	1099	1123	1144	1160	1174	1187
313.15 K, 2000 kPa	967	1024	1073	1102	1123	1144	1160	1175	1187
353.15 K, 200 kPa	935	993	1042	1070	1094	1116	1131	1147	1159
353.15 K, 600 kPa	935	993	1042	1071	1094	1116	1132	1147	1160
353.15 K, 1000 kPa	935	993	1043	1071	1095	1116	1132	1147	1160
353.15 K, 1400 kPa	936	994	1043	1071	1095	1116	1133	1147	1160
353.15 K, 1800 kPa	936	994	1043	1071	1095	1116	1133	1148	1161
353.15 K, 2000 kPa	937	994	1043	1072	1096	1117	1133	1148	1161
393.15 K, 600 kPa	904	964	1014	1042	1067	1090	1106	1122	1135
393.15 K, 1000 kPa	904	965	1014	1043	1068	1090	1106	1122	1135
393.15 K, 1400 kPa	905	965	1015	1043	1068	1090	1107	1122	1135
393.15 K, 1800 kPa	905	965	1015	1044	1069	1091	1107	1123	1136
393.15 K, 2000 kPa	905	966	1015	1044	1069	1091	1108	1123	1136
433.15 K, 1400 kPa	871	935	987	1016	1041	1065	1081	1097	1112
433.15 K, 1800 kPa	872	935	987	1017	1042	1066	1082	1097	1113
433.15 K, 2000 kPa	872	935	987	1017	1042	1066	1082	1098	1113

CCCCn1cc[n+](C)c1.F[B-](F)(F)F [1-butyl-3-methylimidazolium tetrafluoroborate] + c1ccccc1
mass density [kg/m3]
Conditions	x1 = 0.5	x1 = 0.5999	x1 = 0.7001	x1 = 0.8	x1 = 0.8999	x1 = 1
313.15 K, 200 kPa	1111	1129	1145	1158	1172	1185
313.15 K, 600 kPa	1111	1130	1145	1158	1172	1186
313.15 K, 1000 kPa	1111	1130	1146	1158	1173	1186
313.15 K, 1400 kPa	1111	1131	1146	1159	1173	1186
313.15 K, 1800 kPa	1111	1131	1147	1159	1173	1187
313.15 K, 2000 kPa	1111	1132	1147	1159	1173	1187
353.15 K, 200 kPa	1082	1102	1118	1131	1145	1159
353.15 K, 600 kPa	1082	1103	1118	1131	1145	1160
353.15 K, 1000 kPa	1083	1103	1118	1131	1145	1160
353.15 K, 1400 kPa	1083	1103	1118	1132	1146	1160
353.15 K, 1800 kPa	1084	1104	1119	1132	1146	1161
353.15 K, 2000 kPa	1084	1104	1119	1132	1146	1161
393.15 K, 600 kPa	1055	1076	1092	1106	1120	1135
393.15 K, 1000 kPa	1055	1076	1092	1106	1120	1135
393.15 K, 1400 kPa	1055	1077	1092	1106	1120	1135
393.15 K, 1800 kPa	1056	1077	1092	1106	1121	1136
393.15 K, 2000 kPa	1056	1078	1093	1106	1121	1136
433.15 K, 1400 kPa	1028	1050	1066	1080	1096	1112
433.15 K, 1800 kPa	1029	1050	1067	1081	1096	1113
433.15 K, 2000 kPa	1029	1051	1067	1081	1096	1113

From the NIST ThermoML archive (doi:10.1021/je900048r)
